Two compounds from PMC8596838, “Xylose‐Configured Cyclophellitols as Selective Inhibitors for Glucocerebrosidase” (Chembiochem, 2021) can be followed below.

The test has as its system glucosylsphingosine (GlcSph). Put plainly: GlcSph levels in inhibitor treated zebrafish larvae (LC-MS). In kind it is in vivo, zebrafish (Danio rerio). The settings on record: treated 103 hours from 8 hpf, n=2. The text has this: We further investigated the affinity of 1 and 2 towards β‐D‐glucosidases in living animals using zebrafish (Danio rerio) embryos, which express both GBA and GBA2. Following exposure for 5 days, fish larvae were sacrificed and lysed, and cABPP with ABP 10 was used to detect residual active β‐D‐glucosidase molecules in the lysates and for IC50 determination. […] Aziridine compound 2 is also selective against GBA over GBA2, albeit with a narrower selectivity window (Figure 6A–C). […]
Figure 6 In vivo inhibitory effect of β‐D‐xylo‐configured compounds on β‐glucosidases in zebrafish (Danio rerio) larvae. […] Fluorescently labeled proteins were visualized after SDS‐PAGE, only GBA and GBA2 were assessed in zebrafish larvae model. (B) Apparent IC50 values towards β‐glucosidases (GBA and GBA2) were determined by the fluorescence quantification based on cABPP results. […] (D) GlcSph levels in zebrafish larvae were determined as described in experiment section, n=2 replicates.
Sphingolipid extraction and analysis by mass spectrometry in inhibitor treated zebrafish larvae: Zebrafish embryos at 8 hours post fertilization (hpf) were seeded in 96‐well plates (1 fish embryo/ well, 200 μL egg water/well) and treated with corresponding inhibitors in different concentration for 103 hours at 28.5 °C. […] Lipids were extracted and measured according to methods described previously.[48] […]

Consider `O[C@@H]1[C@@H](O)[C@H](O)C[C@H]2O[C@@H]12` [compound 1, xylo‐cyclophellitol], for which the “GlcSph levels in zebrafish embryos” value was “increased levels of GlcSph”.

On to `O[C@@H]1[C@@H](O)[C@H](O)C[C@H]2N[C@@H]12` [compound 2, β‐D‐xylo‐Cyclophellitol aziridine], for which the “GlcSph levels in zebrafish embryos” value was “increased levels of GlcSph”.
